From ChEMBL document CHEMBL1124842, “Cyclohexane diester analogues of phorbol ester as potential activators of protein kinase C” (J Med Chem, 1990)

assay: Inhibition of [3H]PDBu binding to murine brain PKC (protein kinase C); parameters: species or system Mus musculus

| SMILES | IC50 [mM] |
| --- | --- |
| O=C(OC1CC[C@H](/C=C/CCO)CC1OC(=O)c1ccccc1)c1ccccc1 (some centres undefined) | > 1 |
| O=C(OC1CC[C@H](/C=C/CO)CC1OC(=O)c1ccccc1)c1ccccc1 (some centres undefined) | > 1 |
| CCCCCCCC(=O)OC[C@H](CO)OC(=O)CCCCCCC | 0.005 |
| CCCCCCCC(=O)OC1CC[C@H](/C=C/CCO)CC1OC(=O)CCCCCCC (some centres undefined) | > 1 |
| O=C(OC1CC[C@H](CO)CC1OC(=O)c1ccccc1)c1ccccc1 (some centres undefined) | > 1 |
| CCCCCCCC(=O)OC1CC[C@H](/C=C/CO)CC1OC(=O)CCCCCCC (some centres undefined) | > 1 |
| CCCCCCCC(=O)OC1CC[C@H](CO)CC1OC(=O)CCCCCCC (stereo in doubt; 20a) | > 1 |
| CCCCCCCC(=O)OC1CC[C@H](CO)CC1OC(=O)CCCCCCC (stereo in doubt; 20b) | 1 |
| CCCCCCCCCCCCCC(=O)O[C@@H]1[C@@H](C)[C@@]2(O)[C@@H](C=C(CO)C[C@]3(O)C(=O)C(C)=C[C@@H]23)[C@@H]2C(C)(C)[C@]12OC(C)=O [PHORBOL MYRISTATE ACETATE] | 1e-05 |
